# Test results published in patent US20170198027A1 (priority 2012, published 2017).
# Entries after “also recorded” stand apart in the source; their conditions may differ. Read-outs that look alike come from different tables or passages of the source.
# Assays:
# [1] = system: Apo E(-/-) mice fed with HFD/High Cholesterol diet; test: lipid profile and atherosclerosis plaque in 18 ApoE mice, 4 weeks study; type: in vivo, mouse
# Description: [table] […] Before HFD; 4 week: […] After 4 weeks treatment Oil Red staining procedure: • Sacrificed the mice and heart, aorta, and arteries were dissected under the dissecting microscope. […] Stain with freshly prepared Oil Red 0 working solution 10 mins. Image analysis procedure: • The unfolded vascular inner wall “Were scanned with Aperio ScanScope system and the area of atherosclerotic plaque was measured by Image-Proplus software after oil red 0 staining as follow picture shown. We measured the sum lesion areas and mean density using ipp software and calculated atherosclerotic percent. Area percent (%)” Sum area of atherosclerotic plaque (mm2) I whole area of vascular inner wall
# [2] = system: New Zealand white rabbit fed with high fat diet; conditions: for atherosclerosis Grade: individual animals, listed as APOAI
# Description: The treatment groups were given APOAJ via auricular vein once a week Vehicle controls received normal saline via auricular vein once a week. […] The body weight of animal was determined every week and whole blood was drawn every three weeks. The study duration was 19 weeks. At the end of study, all animals were sacrificed. […] Male New Zealand white rabbits were used in this study. […] Blood samples were taken 12 hour after fasting before study to determine the blood lipid parameters. […] Ten to 14 rabbits were in one group. […] First dose was given 1 week before high fat diet. […] 5.2 blood lipid parameters: whole blood was drawn every three weeks. Animals were subject to 12 hour fast before taking blood. […] The upper layer of serum was then separated and examined for total cholesterol (TC), total triglyceride (TG), low density lipoprotein cholesterin (LDL-C), and high density lipoprotein cholesterin (HDL-C). Test reagents were purchased from Shanghai A: The atherosclerosis of aorta (plaque area lj) B: Liver index C: Aorta, liver, heart, arteria carotis, kidney All animals were anesthetized by 20 of ethyl carbamate and then sacrificed with air injection. Abdomen cavity was opened. Whole blood was taken from heart. Heart was harvested along with 7 em of aorta. Then other organs like liver, kidney and arteria carotis were harvested. […] Pictures were taken then. Aorta was cut from aortic arch, opened longitudinally and taken picture. […] One piece of this sample was fixed in fomlalin for further pathological analysis. The weight of liver was determined immediately. Two pieces of specimen were cut from hepatic lobe. One was kept in cryo-preservation tube for lipid analysis and another one was fixed in formalin for further pathological analysis. Animals were fast for 12 hours before taking blood samples via auricular vein. […] Test reagents were purchased from Shanghai Rong Sheng Bio-pharmaceutical Co. Ltd. The aorta was dissected and opened for 7.5 em from aortic arch longitudinally. Pictures were taken and atherosclerosis changing was analyzed.
# 6-OHDA lesioned rat = 6-OHDA lesioned rat model of Parkinson's disease (cylinder, adjusting step, rotation, TH staining); type: in vivo; conditions: prophylactic, high and moderate groups vs vehicle, trend
# Description: 1. Animals: male SO rats were purchased from Shanghai Laboratory Animal Center (SLAC). They were housed under 21-23 OC, with 12 h light-dark life cycle. Food and water were given ad libitum.
# 2. 6uOHDA lesion: Rats were anesthetized with 60 mg/kg sodium pentobarbital. They were stereotaxic injected with total dose of 20 pg of fresh prepared 6-OHDA (dissolved in saline containing 0.05% ascorbic acid, calculated as free base) into tvvo sites of the left striatum, using the following coordinates (in mm relative to Bregma): AP+i 0.0, L −2.5, DV −5.0; AP −0.4, L −4.0, DV −5.5. The injection rate was i pi/min and a total of 2 iJI was injected at each site. The needle was left in place for 3 min before retracting.
# 3. Cylinder test: Rats were placed in a transparent cylinder (22 cm in diameter and 30 cm height). Animal would rear and support its body with one or both of its forelimbs. […] Each behavioral was expressed as percent use of left, right or both limb(s) relative to the total number.
# 4. […] The number of adjusting steps of each left and right forelimbs on both directions was recorded individually. […]
# 6. […] Number of positively stained cells in the left and right sides of SN in each section was counted to make the summation. The ratio of left/right was calculated.
# 7. Statistic analysis: Data were expressed as mean±SEI\tl and analyzed with ANOVA followed by Tukey test. […]
# [3] = low dose group vs vehicle control
# [4] = medium group vs vehicle control
substance,measurement,setting,value
"human Apoiipoprotein AI, injection [APOA1]",blood plasma lipid profile,"[1]; after 5 weeks treatment, 0.2 ml iv/ip",didn't improve the lipid profile
same,atherosclerotic plaques/lesions,[1]; vs vehicle group after 14 dosing,trend on reducing the atherosclerotic plaques/lesions
same,Lipid content in aorta: HDL-C,[2]; High dose,0.111
same,Lipid content in aorta: LDL-C,[2]; High dose,0.318
same,Lipid content in aorta: TC,[2]; High dose,0.29
same,Lipid content in aorta: TG,[2]; High dose,0.402
same,Lipid content in liver: HDL-C,[2]; High dose,0.825 ± 0.129
same,Lipid content in liver: LDL-C,[2]; High dose,2.302 ± 0.054
same,Lipid content in liver: TC,[2]; High dose,2.841 ± 0.298
same,Lipid content in liver: TG,[2]; High dose,1.3 ± 0.171
same,Liver index,[2]; High dose (n = 8),4.257 ± 0.482%
same,Liver weight,[2]; High dose (n = 8),151.69 ± 18.49 g
same,Lipid content in aorta: HDL-C,[2]; Low dose,0.092
same,Lipid content in aorta: LDL-C,[2]; Low dose,0.254
same,Lipid content in aorta: TC,[2]; Low dose,0.28
same,Lipid content in aorta: TG,[2]; Low dose,0.337
same,Lipid content in liver: HDL-C,[2]; Low dose,0.803 ± 0.236
same,Lipid content in liver: TC,[2]; Low dose,2.95 ± 0.809
same,Lipid content in liver: TG,[2]; Low dose,1.369 ± 0.251
same,Liver index,[2]; Low dose (n = 12),3.886 ± 0.489%
same,Liver weight,[2]; Low dose (n = 12),128.096 ± 20.43 g
same,Liver index,[2]; Medium dose (n = 9),3.708−.−i−:( ).391%
same,Liver weight,[2]; Medium dose (n = 9),112.006− −+ .−25.79 g
same,Lipid content in aorta: HDL-C,[2]; Middle dose,0.128
same,Lipid content in aorta: LDL-C,[2]; Middle dose,0.307
same,Lipid content in aorta: TC,[2]; Middle dose,0.332
same,Lipid content in aorta: TG,[2]; Middle dose,0.388
same,Lipid content in liver: HDL-C,[2]; Middle dose,0.815 ± 0.249
same,Lipid content in liver: LDL-C,[2]; Middle dose,1.407 ± 0.418
same,Lipid content in liver: TC,[2]; Middle dose,"2,214 ± 0.515"
same,Lipid content in liver: TG,[2]; Middle dose,1.081 ± 0.31
same,blood lipid parameters,[2]; given along with high fat diet,no significant decrease in blood lipid parameters
same,"TG, lipid content in liver",[2]; high dose group vs vehicle control,significantly lower
same,atherosclerosis Grade,[2]; high dose group,IV (Grade IV was greater than 75%)
same,pathological change of aorta,[2]; low dose group,no significant improvement
same,"TG, lipid content in liver",[2]; [3],significantly lower
same,cellular swelling in liver,[2]; [3],same
same,fat degeneration in liver,[2]; [3],better
same,atherosclerosis Grade,[2]; low dose group,I (grade I was less than 25 ?-)); also recorded: IV (Grade IV was greater than 75%)
same,atherosclerosis Grade,[2]; medium dose group,I (grade I was less than 25 ?-))
same,area of atherosclerosis,[2]; medium group (40 mg/kg) vs vehicle control,significant less
same,"LDL-C, lipid content in liver",[2]; [4],significantly lower
same,"TC, lipid content in liver",[2]; [4],significantly lower
same,"TG, lipid content in liver",[2]; [4],significantly lower
same,cellular swelling and fat degeneration in liver,[2]; [4],better
same,"pathological change of aorta (endothelium swelling, smooth muscle migrating, foam cell formation)",[2]; [4],better
same,Body weight Wk 19,"[2]; rabbit, in vivo",3.19-.-i-:( ).278 kg
same,atherosclerosis change in Arteria carotis,"[2]; rabbit, in vivo",no atherosclerosis change found
same,"calcification, pathological examination","[2]; rabbit, in vivo",no calcification found
same,kidney Pathological change,"[2]; rabbit, in vivo",-
same,pathological change in heart and kidney,"[2]; rabbit, in vivo",no pathological change found
same,high density lipoprotein cholesterin (HDL-C) Wk 19,"[2]; serum, High dose (n = 8)",4.993 · −+ :2.018 mmol/L
same,ligh density lipoprotein cholesterin (LDL-C) Wk 0,"[2]; serum, High dose (n = 8)",0.92 ± 0.324 mmol/L
same,ligh density lipoprotein cholesterin (LDL-C) Wk 19,"[2]; serum, High dose (n = 8)",14.1 ± 4.188 mmol/L
same,total cholesterol (TC) Wk 0,"[2]; serum, High dose (n = 8)",1.59 .t-J}.48 mmol/L
same,total cholesterol (TC) Wk 19,"[2]; serum, High dose (n = 8)",12.49 -t-2.81 mmol/L
same,high density lipoprotein cholesterin (HDL-C) Wk 0,"[2]; serum, Low dose (n = 12)",0.705 ± 0.246 mmol/L
same,high density lipoprotein cholesterin (HDL-C) Wk 19,"[2]; serum, Low dose (n = 12)",3.744 ± 2.14 mmol/L
same,ligh density lipoprotein cholesterin (LDL-C) Wk 0,"[2]; serum, Low dose (n = 12)",0.826 ± 0.279 mmol/L
same,ligh density lipoprotein cholesterin (LDL-C) Wk 19,"[2]; serum, Low dose (n = 12)",7.298 ± 4.60 mmol/L
same,total cholesterol (TC) Wk 0,"[2]; serum, Low dose (n = 12)",1.06.-i-:0.27 mmol/L
same,total cholesterol (TC) Wk 19,"[2]; serum, Low dose (n = 12)",9.07-.+:4.92 mmol/L
same,total triglyceride (TG) Wk 0,"[2]; serum, Low dose (n = 12)",0.786 ± 0.229 mmol/L
same,total triglyceride (TG) Wk 19,"[2]; serum, Low dose (n = 12)",1.267 ± 0.772 mmol/L
same,high density lipoprotein cholesterin (HDL-C) Wk 0,"[2]; serum, Medium dose (n = 9)",0.67 ± 0.207 mmol/L
same,high density lipoprotein cholesterin (HDL-C) Wk 19,"[2]; serum, Medium dose (n = 9)",4.343 ± 2.439 mmol/L
same,ligh density lipoprotein cholesterin (LDL-C) Wk 19,"[2]; serum, Medium dose (n = 9)",6.357 ± 4.475 mmol/L
same,total cholesterol (TC) Wk 0,"[2]; serum, Medium dose (n = 9)",1.77 ± 0.783 mmol/L
same,total cholesterol (TC) Wk 19,"[2]; serum, Medium dose (n = 9)",10.28 ± 5.82 mmol/L
same,total triglyceride (TG) Wk 0,"[2]; serum, Medium dose (n = 9)",0.656 ± 0.19 J·mmol/L
same,HDL-C,"[2]; serum, all treatment groups vs vehicle control",significantly high
same,dose escalation effect,"[2]; three treatment groups, anatomic, pathological and biochemistry examination",no dose escalation effect
same,Liver index,[2]; treatment group vs vehicle,"lower in treatment group, but there's no statistical difference found"
same,lipid content in aorta,[2]; treatment groups vs vehicle control,lower in treatment groups than that in vehicle control but there was no statistical significance
same,"neuron count, damage caused by 6-OHDA lesion",6-OHDA lesioned rat,reduce the damage caused by 6-OHDA lesion
